Measurements published in US20040186166A1, “Cannabinoid analogs as peroxisome proliferator activated nuclear receptor gamma activators” (priority 2002, published 2004).
Several values for one entry are separate records, joined by “and”; a condition that tells them apart may be missing. Equal values may be shown once.

Assays:
human IL-8 promoter = assay: IL-8 promoter luciferase assay, HeLa cells with PPARγ ΔAF2 mutant; assay type: cell-based; details: cells transfected with PPARγ ΔAF2 mutant
Description: For PPARγ activation assay, HEK293 cells were plated in 12-well cell culture plates and maintained in Dulbecco's modified Eagle's medium (DMEM) supplemented with 10% fetal bovine serum (FBS) at 37° C. under 5% CO2. Cells were changed to phenol red-free DMEM supplemented with 10% charcoal-stripped fetal bovine serum 3 hours before transfection by a standard calcium-phosphate precipitation method. Twelve hours after transfection, the cells were washed with phosphate-buffered saline (PBS) and fed again with fresh medium containing the indicated concentrations of compounds. After 36 hours, cells were harvested for β-galactosidase and luciferase activities as described previously (Li et al., Proc Natl Acad Sci USA 94:8479-84, 1997). The average normalized luciferase activity was determined via triplicate experiments. For IL-8 promoter assay, HeLa cells were maintained and transfected in the same way as described above. After transfection, cells were recovered for 4 hours before treatment with AJA, GW347845, or solvent. […]
The IL-8 luciferase reporter controlled by the human IL-8 promoter (-97/-69) was cotransfected with mPPARγ or mPPARγ ΔAF2 mutant into HeLa cells. […] The involvement of PPARγ in regulating IL-8 promoter activity was determined by comparing the IL-8 promoter activity in the presence of wild type PPARγ or its ΔAF2 mutant. […]

Gal4-DBD/mPPARγ = target: T1, Gal4-DBD/mPPARγ (Mus musculus, UniProt P37238); assay: Gal4-dependent MH100-Luc reporter, Gal4-DBD/mPPARγ; assay type: cell-based; details: HEK293 cells
T1 construct: expressed in transfected cells; host or cells: HEK293
T1 sequence (P37238 1-475 isoform P37238-2): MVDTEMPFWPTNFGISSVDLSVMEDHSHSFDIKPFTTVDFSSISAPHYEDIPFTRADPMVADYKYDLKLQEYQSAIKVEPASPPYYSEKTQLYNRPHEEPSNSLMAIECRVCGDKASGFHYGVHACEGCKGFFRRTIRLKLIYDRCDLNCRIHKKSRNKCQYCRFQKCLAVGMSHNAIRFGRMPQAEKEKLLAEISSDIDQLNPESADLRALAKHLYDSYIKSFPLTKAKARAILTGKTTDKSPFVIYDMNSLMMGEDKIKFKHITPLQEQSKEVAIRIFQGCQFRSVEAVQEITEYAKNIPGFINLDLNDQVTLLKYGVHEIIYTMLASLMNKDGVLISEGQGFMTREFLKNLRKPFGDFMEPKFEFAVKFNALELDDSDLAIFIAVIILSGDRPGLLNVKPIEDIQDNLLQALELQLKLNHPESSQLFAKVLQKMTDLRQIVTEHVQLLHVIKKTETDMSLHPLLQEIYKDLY
Text: The-pCMX-Gal4-mPPARγ1 was constructed by fusing the mPPARγ1 coding sequence to the yeast GAL4 DNA binding domain (amino acid 1-147) in the pCMX vector. The AF-2 helix-truncated mutant of mPPARγ1 (PPARγ ΔAF2) was generated by PCR amplification-to introduce a stop codon and a NheI restriction site after amino acid 489, and then-subcloned into the pCMX vector. The PPRE-TK-LUC, MH100-TK-LUC-and DR1-TK-LUC reporters have been described previously (Forman et al., Cell 83:803-812, 1995; Umesono et al., Cell 65:1255-1266, 1991).
For PPARγ activation assay, HEK293 cells were plated in 12-well cell culture plates and maintained in Dulbecco's modified Eagle's medium (DMEM) supplemented with 10% fetal bovine serum (FBS) at 37° C. under 5% CO2. […] The average normalized luciferase activity was determined via triplicate experiments. […]
To further confirm activation of PPARγ by AJA, and also to determine PPARγ species specificity, the ability of AJA to activate the chimeric Gal4-DBD/PPAR fusion proteins on a Gal4-dependent MH100-Luc reporter was assessed (FIG. 4A). The PPARs were expressed as Gal4 DBD fusion proteins, which bind to the UAS promoter containing 4 copies of a synthetic Gal4 binding site upstream of the minimal thymidine kinase (TK) promoter. […]

PPARδ = target: T2, PPARδ (Mus musculus, UniProt P35396); assay: PPRE-TK-LUC reporter transient transfection, PPARδ; assay type: cell-based; details: 20 μM AJA (FIG. 3C)
T2 construct: expressed in transfected cells; host or cells: HEK293 / HEK293T
T2 sequence (P35396 1-440): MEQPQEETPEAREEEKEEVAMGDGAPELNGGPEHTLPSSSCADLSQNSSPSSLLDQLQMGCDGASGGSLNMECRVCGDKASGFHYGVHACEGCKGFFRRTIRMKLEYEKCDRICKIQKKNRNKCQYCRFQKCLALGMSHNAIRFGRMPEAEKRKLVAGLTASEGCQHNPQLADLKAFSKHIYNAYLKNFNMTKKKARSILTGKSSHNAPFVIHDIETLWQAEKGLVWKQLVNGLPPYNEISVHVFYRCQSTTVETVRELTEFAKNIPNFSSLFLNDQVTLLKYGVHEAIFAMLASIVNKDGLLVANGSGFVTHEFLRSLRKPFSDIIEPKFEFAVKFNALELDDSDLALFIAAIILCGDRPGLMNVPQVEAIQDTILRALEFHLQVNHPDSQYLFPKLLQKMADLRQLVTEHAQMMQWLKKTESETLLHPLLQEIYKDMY
Description: For PPARγ activation assay, HEK293 cells were plated in 12-well cell culture plates and maintained in Dulbecco's modified Eagle's medium (DMEM) supplemented with 10% fetal bovine serum (FBS) at 37° C. under 5% CO2. Cells were changed to phenol red-free DMEM supplemented with 10% charcoal-stripped fetal bovine serum 3 hours before transfection by a standard calcium-phosphate precipitation method. Twelve hours after transfection, the cells were washed with phosphate-buffered saline (PBS) and fed again with fresh medium containing the indicated concentrations of compounds. After 36 hours, cells were harvested for β-galactosidase and luciferase activities as described previously (Li et al., Proc Natl Acad Sci USA 94:8479-84, 1997). The average normalized luciferase activity was determined via triplicate experiments. For IL-8 promoter assay, HeLa cells were maintained and transfected in the same way as described above. After transfection, cells were recovered for 4 hours before treatment with AJA, GW347845, or solvent. After 3-4 hours, cells were treated with or without 25 nM of phorbol myristate acetate (PMA) for 24 hours.
In an effort to confirm that AJA activates PPARγ selectively, the ability of AJA to activate PPARα and PPARδ was analyzed in a similar transient transfection assay.

CB2 = CB2 (Homo sapiens, UniProt P34972); details: Recht et al. 2001; cited from earlier work
CB2, sequence (P34972 whole entry, species assumed): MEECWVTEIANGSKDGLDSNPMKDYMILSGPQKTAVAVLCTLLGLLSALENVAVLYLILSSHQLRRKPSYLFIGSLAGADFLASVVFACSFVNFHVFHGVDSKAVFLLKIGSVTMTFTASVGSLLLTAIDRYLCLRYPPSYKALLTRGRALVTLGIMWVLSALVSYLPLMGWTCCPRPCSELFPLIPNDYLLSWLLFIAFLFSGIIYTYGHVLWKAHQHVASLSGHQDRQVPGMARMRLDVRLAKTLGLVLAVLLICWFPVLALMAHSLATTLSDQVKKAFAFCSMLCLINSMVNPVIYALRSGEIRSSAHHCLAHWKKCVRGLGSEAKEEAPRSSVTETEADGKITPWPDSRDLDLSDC

In the case of `CCCCCCC(C)(C)c1cc(O)c2c(c1)OC(C)(C)[C@@H]1CC=C(C(=O)O)C[C@@H]21` [AJA, dimethylheptyl-THC-11-oic acid], the “effect on IL-8 promoter activity” value (human IL-8 promoter) is reported as “no effect”, the “activation of Gal4-DBD/mPPARγ reporter gene expression” value (Gal4-DBD/mPPARγ; 20 μM AJA) is reported as “activated the reporter gene expression significantly” and the EC50 (Gal4-DBD/mPPARγ; EC-50 for activation of PPARγ, estimated, 10-60 μM AJA, luciferase activity) is reported as ~13 µM and 13 µM. For the same compound, the “activation of PPARδ” value (PPARδ) was “neither did AJA activate PPARδ” and the “affinity to CB2” value (CB2) was “modest affinity”.
